Experimental data: patent US11028064B2, “Tricyclic heterocyclic derivatives and uses thereof” (AUCKLAND UNISERVICES LIMITED, priority 2016, dated 2021)

biological target: CSF-1R (FMS) (Homo sapiens (Human), UniProt P07333); test: SelectScreen Z'-LYTE kinase assay, Assay 336 for CSF-1R (FMS); assay type: biochemical; conditions: Z'-LYTE activity assay, 500 μM ATP (Km app); read-out: CSF-1R Enzyme IC50
Sequence (P07333 20-972): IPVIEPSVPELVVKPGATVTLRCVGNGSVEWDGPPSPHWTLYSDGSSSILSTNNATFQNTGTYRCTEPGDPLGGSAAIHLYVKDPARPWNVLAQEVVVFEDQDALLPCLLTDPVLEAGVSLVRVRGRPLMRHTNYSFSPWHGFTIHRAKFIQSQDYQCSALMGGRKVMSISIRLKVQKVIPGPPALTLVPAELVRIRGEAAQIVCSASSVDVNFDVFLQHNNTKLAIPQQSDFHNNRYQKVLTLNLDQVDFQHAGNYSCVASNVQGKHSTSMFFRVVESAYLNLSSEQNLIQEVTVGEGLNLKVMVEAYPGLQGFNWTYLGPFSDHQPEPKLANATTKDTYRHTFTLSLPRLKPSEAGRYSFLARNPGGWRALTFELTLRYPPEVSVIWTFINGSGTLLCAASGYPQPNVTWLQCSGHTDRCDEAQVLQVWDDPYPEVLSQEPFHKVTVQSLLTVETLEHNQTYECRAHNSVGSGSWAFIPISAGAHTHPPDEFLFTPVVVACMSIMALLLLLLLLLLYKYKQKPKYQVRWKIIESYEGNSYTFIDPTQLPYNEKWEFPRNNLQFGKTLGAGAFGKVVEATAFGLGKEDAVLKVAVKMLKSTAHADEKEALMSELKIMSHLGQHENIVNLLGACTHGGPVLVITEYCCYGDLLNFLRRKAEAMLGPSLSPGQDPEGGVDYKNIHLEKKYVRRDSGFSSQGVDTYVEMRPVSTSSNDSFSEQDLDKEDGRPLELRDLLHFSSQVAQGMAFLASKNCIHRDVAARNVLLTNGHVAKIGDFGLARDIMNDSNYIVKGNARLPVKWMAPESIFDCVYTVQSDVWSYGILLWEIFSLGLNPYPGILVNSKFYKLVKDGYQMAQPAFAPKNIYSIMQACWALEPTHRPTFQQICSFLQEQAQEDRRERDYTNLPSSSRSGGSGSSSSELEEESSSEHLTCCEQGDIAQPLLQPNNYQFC

| IC50 [nM] | Structure (SMILES) |
| --- | --- |
| < 100 | Cc1cc(OCC2CCCCN2C)c2oc3cc(Oc4ccc(CCC(=O)NC5CCCC5)nc4)ccc3c(=O)c2c1 (stereo not shown) [Example 74, N-Cyclopentyl-3-(5-((7-methyl-5-((1-methylpiperidin-2-yl)methoxy)-9-oxo-9H-xanthen-3-yl)oxy)pyridin-2-yl)propanamide] |
| < 100 | Cc1cc(OCCN(C)C)c2oc3cc(Oc4ccc(CCNC(=O)N5CCCC5)nc4)ccc3c(=O)c2c1 [Example 27, N-(2-(5-((5-(2-(Dimethylamino)ethoxy)-7-methyl-9-oxo-9H-xanthen-3-yl)oxy)pyridin-2-yl)ethyl)pyrrolidine-1-carboxamide] |
| < 100 | Cc1cc(OC[C@H]2CCCN2C)c2oc3cc(Oc4ccc(CCC(=O)NC5CCCC5)nc4)ccc3c(=O)c2c1 [Example 72, (R)—N-Cyclopentyl-3-(5-((7-methyl-5-((1-methylpyrrolidin-2-yl)methoxy)-9-oxo-9H-xanthen-3-yl)oxy)pyridin-2-yl)propanamide] |
| < 100 | Cc1cc(OCCC2CCCN2C)c2oc3cc(Oc4ccc(CCC(=O)NC5CCCC5)nc4)ccc3c(=O)c2c1 (stereo not shown) [Example 75, N-Cyclopentyl-3-(5-((7-methyl-5-(2-(1-methylpyrrolidin-2-yl)ethoxy)-9-oxo-9H-xanthen-3-yl)oxy)pyridin-2-yl)propanamide] |
| < 100 | Cc1cc(OCCN)c2oc3cc(Oc4ccc(CCC(=O)NC5CCCC5)nc4)ccc3c(=O)c2c1 [Example 28, 3-(5-((5-(2-Aminoethoxy)-7-methyl-9-oxo-9H-xanthen-3-yl)oxy)pyridin-2-yl)-N-cyclopentylpropanamide] |
| < 100 | Cc1cc(OC[C@@H]2CCCN2C)c2oc3cc(Oc4ccc(CCC(=O)NC5CCCC5)nc4)ccc3c(=O)c2c1 [Example 73, (S)—N-Cyclopentyl-3-(5-((7-methyl-5-((1-methylpyrrolidin-2-yl)methoxy)-9-oxo-9H-xanthen-3-yl)oxy)pyridin-2-yl)propanamide] |
| < 100 | Cc1cc(OCCN(C)C)c2sc3cc(Oc4cccc(C(=O)Nc5ccccc5)c4)ccc3c(=O)c2c1 [Example 49, 3-((5-(2-(Dimethylamino)ethoxy)-7-methyl-9-oxo-9H-thioxanthen-3-yl)oxy)-N-phenylbenzamide] |
| < 100 | Cc1cc(OCCCN2[C@H](C)CCC[C@@H]2C)c2oc3cc(Oc4ccc(CCC(=O)NC5CCCC5)nc4)ccc3c(=O)c2c1 [Example 64, N-Cyclopentyl-3-(5-((5-(3-((2R,6S)-2,6-dimethylpiperidin-1-yl)propoxy)-7-methyl-9-oxo-9H-xanthen-3-yl)oxy)pyridin-2-yl)propanamide] |
| < 100 | CN(C)CCOc1ccc2oc3cc(Oc4ccc(CCC(=O)NC5CCCC5)nc4)ccc3c(=O)c2c1 [Example 44, N-Cyclopentyl-3-(5-((7-(2-(dimethylamino)ethoxy)-9-oxo-9H-xanthen-3-yl)oxy)-pyridin-2-yl)propanamide] |
| < 100 | Cc1cc(OCCN(C)C)c2oc3cc(Oc4ccc(CCC(=O)NC5CCCC5)nc4)ccc3c(=O)c2c1 [Example 22, N-Cyclopentyl-3-(5-((5-(2-(dimethylamino)ethoxy)-7-methyl-9-oxo-9H-xanthen-3-yl)-oxy)pyridin-2-yl)propanamide] |
| < 100 | CN(C)CCOc1cc(Cl)cc2c(=O)c3ccc(Oc4cccc(C(=O)Nc5ccccc5)c4)cc3oc12 [Example 40, 3-({7-Chloro-5-[2-(dimethylamino)ethoxy]-9-oxo-9H-xanthen-3-yl}oxy)-N-phenylbenzamide] |
| < 100 | Cc1cc(OCCN(C)C)c2sc3cc(Oc4ccc(CCC(=O)NC5CCCC5)nc4)ccc3c(=O)c2c1 [Example 51, N-Cyclopentyl-3-(5-((5-(2-(dimethylamino)ethoxy)-7-methyl-9-oxo-9H-thioxanthen-3-yl)oxy)pyridin-2-yl)propanamide] |
| < 100 | COc1ccc(CNc2ccc(Oc3ccc4c(=O)c5cc(C)cc(OCCN(C)C)c5oc4c3)cn2)cn1 [Example 16, 4-(2-(Dimethylamino)ethoxy)-6-((6-(((6-methoxypyridin-3-yl)methyl)amino)pyridin-3-yl)oxy)-2-methyl-9H-xanthen-9-one] |
| < 100 | Cc1cc(OCCN(C)C)c2oc3cc(Oc4ccc(CCC(=O)N5CCN(C)CC5)nc4)ccc3c(=O)c2c1 [Example 54, 4-(2-(Dimethylamino)ethoxy)-2-methyl-6-((6-(3-(4-methylpiperazin-1-yl)-3-oxopropyl)pyridin-3-yl)oxy)-9H-xanthen-9-one] |
| < 100 | COc1ccc(COc2ccc(Oc3ccc4c(=O)c5cc(C)cc(OCCN(C)C)c5oc4c3)cn2)cc1 [Example 10, 4-(2-(Dimethylamino)ethoxy)-6-((6-((4-methoxybenzyl)oxy)pyridin-3-yl)oxy)-2-methyl-9H-xanthen-9-one] |
| < 100 | COc1ccc(COc2ccc(Oc3ccc4c(=O)c5cc(C)cc(OCCN(C)C)c5oc4c3)cc2OC)cc1 [Example 7] |
| 1000 to 10000 | CN(C)CCOc1cc(Cl)cc2c(=O)c3ccc(Oc4ccccc4)cc3oc12 [Example 39, 2-Chloro-4-[2-(dimethylamino)ethoxy]-6-phenoxy-9H-xanthen-9-one] |
| < 100 | COc1ccc(CCc2ccc(Oc3ccc4c(=O)c5cc(C)cc(OCCN(C)C)c5sc4c3)cn2)cc1 [Example 50, 4-(2-(Dimethylamino)ethoxy)-6-((6-(4-methoxyphenethyl)pyridin-3-yl)oxy)-2-methyl-9H-thioxanthen-9-one] |
| 100 to 1000 | Cc1cc(OCC2CCN(C)CC2)c2oc3cc(Oc4ccccc4)ccc3c(=O)c2c1 [Example 35, 2-Methyl-4-((1-methylpiperidin-4-yl)methoxy)-6-phenoxy-9H-xanthen-9-one] |
| < 100 | Cc1cc(OCCCN2CCOCC2)c2oc3cc(Oc4ccc(CCC(=O)NC5CCCC5)nc4)ccc3c(=O)c2c1 [Example 69, N-Cyclopentyl-3-[5-({7-methyl-5-[3-(4-morpholinyl)propoxy]-9-oxo-9H-xanthen-3-yl}oxy)-2-pyridinyl]propanamide] |
| 1000 to 10000 | Cc1ccc2c(c1)c(=O)c1ccc(Sc3ccccc3)cc1n2CCCN(C)C [Example 52, 10-(3-(Dimethylamino)propyl)-2-methyl-6-(phenylthio)acridin-9(10H)-one] |

| Structure (SMILES) | IC50 [nM] |
| --- | --- |
| Cc1cc(OCCCN(C)C)c2oc3cc(Oc4ccc(CCC(=O)NC5CCCC5)nc4)ccc3c(=O)c2c1 [Example 63, N-Cyclopentyl-3-(5-((5-(3-(dimethylamino)propoxy)-7-methyl-9-oxo-9H-xanthen-3-yl)oxy)pyridin-2-yl)propanamide] | < 100 |
| CCN(CC)CCOc1cc(C)cc2c(=O)c3ccc(Oc4ccc(CCC(=O)NC5CCCC5)nc4)cc3oc12 [Example 55, N-Cyclopentyl-3-(5-((5-(2-(diethylamino)ethoxy)-7-methyl-9-oxo-9H-xanthen-3-yl)oxy)pyridin-2-yl)propanamide] | < 100 |
| Cc1cc(OCC2CCCN(C)C2)c2oc3cc(Oc4ccc(CCC(=O)NC5CCCC5)nc4)ccc3c(=O)c2c1 (stereo not shown) [Example 76, N-Cyclopentyl-3-(5-((7-methyl-5-((1-methylpiperidin-3-yl)methoxy)-9-oxo-9H-xanthen-3-yl)oxy)pyridin-2-yl)propanamide] | < 100 |
| Cc1cc(OCCN(C)C)c2oc3cc(Oc4ccc(OCc5ccc(C(F)(F)F)nc5)nc4)ccc3c(=O)c2c1 [Example 13, 4-(2-(Dimethylamino)ethoxy)-2-methyl-6-((6-((6-(trifluoromethyl)pyridin-3-yl)meth-oxy)pyridin-3-yl)oxy)-9H-xanthen-9-one] | < 100 |
